Earlier results in PubChem BioAssay AID1259409 (Chemical Carcinogenesis Research Information System (CCRIS), 2018).
Values joined by “and” are separate entries in the source; they are usually repeats but may differ in a detail not shown here. Equal values may be shown once.

Test system: rodent chemically induced tumor inhibition, incidence and multiplicity
Test: CCRIS tumor inhibitor studies

For CC1=C(/C=C/C(C)=C/C=C/C(C)=C\C(=O)Nc2ccc(OC(=O)C(C)(C)C)cc2)C(C)(C)CCC1, the “tumour outcome (control, treated, inhibition, significance)” value (Carcinogen: N-NITROSOBIS(2-OXOPROPYL)AMINE, 60599-38-4, Dose [Inhibitor]: 0.25 MMOL/KG DIET FOR 364 D STARTING 2 WK AFTER LAST CARCINOGEN DOSE (STUDY DURATION: 55 WK), Route [Inhibitor]: ORAL, Species: HAMSTER, Strain/Sex: SYRIAN/FEMALE, Target Tissue: Type of Lesion: LIVER: CARCINOMA, Dose [Carcinogen]: 20 MG/KG INJECTION GIVEN TWICE 1 WK APART, Promoter: NONE USED) is given as 7%, 10%, -43%, not calculated, the “tumour outcome (control, treated, inhibition, significance)” value (Carcinogen: N-NITROSOBIS(2-OXOPROPYL)AMINE, 60599-38-4, Dose [Inhibitor]: 0.25 MMOL/KG DIET FOR 364 D STARTING 2 WK AFTER LAST CARCINOGEN DOSE (STUDY DURATION: 55 WK), Route [Inhibitor]: ORAL, Species: HAMSTER, Strain/Sex: SYRIAN/MALE, Target Tissue: Type of Lesion: LIVER: CARCINOMA, Dose [Carcinogen]: 20 MG/KG INJECTION GIVEN TWICE 1 WK APART, Promoter: NONE USED) is given as 5%, 25%, -400%, not calculated and the “tumour outcome (control, treated, inhibition, significance)” value (Carcinogen: N-NITROSOBIS(2-OXOPROPYL)AMINE, 60599-38-4, Dose [Inhibitor]: 0.25 MMOL/KG DIET FOR 364 D STARTING 2 WK AFTER LAST CARCINOGEN DOSE (STUDY DURATION: 55 WK), Route [Inhibitor]: ORAL, Species: HAMSTER, Strain/Sex: SYRIAN/MALE, Target Tissue: Type of Lesion: PANCREAS: CARCINOMA, Dose [Carcinogen]: 20 MG/KG INJECTION GIVEN TWICE 1 WK APART, Promoter: NONE USED) is given as 34%, 14%, 59%, not calculated and 38%, 28%, 26%, not calculated. For the same molecule, the “tumour outcome (control, treated, inhibition, significance)” value (Carcinogen: N-NITROSOBIS(2-OXOPROPYL)AMINE, 60599-38-4, Dose [Inhibitor]: 0.5 MMOL/KG DIET FOR 209 D STARTING 2 WK AFTER LAST CARCINOGEN DOSE FOLLOWED BY 0.25 MMOL/KG DIET FOR 117 D WITH INTERMI, Route [Inhibitor]: ORAL, Species: HAMSTER, Strain/Sex: SYRIAN/FEMALE, Target Tissue: Type of Lesion: LIVER: CARCINOMA, Dose [Carcinogen]: 20 MG/KG INJECTION GIVEN TWICE 1 WK APART, Promoter: NONE USED) was 5%, 19%, -280%, not calculated, the “tumour outcome (control, treated, inhibition, significance)” value (Carcinogen: N-NITROSOBIS(2-OXOPROPYL)AMINE, 60599-38-4, Dose [Inhibitor]: 0.5 MMOL/KG DIET FOR 209 D STARTING 2 WK AFTER LAST CARCINOGEN DOSE FOLLOWED BY 0.25 MMOL/KG DIET FOR 117 D WITH INTERMI, Route [Inhibitor]: ORAL, Species: HAMSTER, Strain/Sex: SYRIAN/FEMALE, Target Tissue: Type of Lesion: PANCREAS: CARCINOMA, Dose [Carcinogen]: 20 MG/KG INJECTION GIVEN TWICE 1 WK APART, Promoter: NONE USED) was 38%, 27%, 29%, not calculated and the “tumour outcome (control, treated, inhibition, significance)” value (Carcinogen: N-NITROSOBIS(2-OXOPROPYL)AMINE, 60599-38-4, Dose [Inhibitor]: 0.5 MMOL/KG DIET FOR 209 D STARTING 2 WK AFTER LAST CARCINOGEN DOSE FOLLOWED BY 0.25 MMOL/KG DIET FOR 117 D WITH INTERMI, Route [Inhibitor]: ORAL, Species: HAMSTER, Strain/Sex: SYRIAN/MALE, Target Tissue: Type of Lesion: LIVER: HEPATOCELLULAR CARCINOMA, Dose [Carcinogen]: 20 MG/KG INJECTION GIVEN TWICE 1 WK APART, Promoter: NONE USED) was 7%, 19%, -171%, not calculated. For the same molecule, the “tumour outcome (control, treated, inhibition, significance)” value (Carcinogen: N-NITROSOBIS(2-OXOPROPYL)AMINE, 60599-38-4, Dose [Inhibitor]: 0.5 MMOL/KG DIET FOR 209 D STARTING 2 WK AFTER LAST CARCINOGEN DOSE FOLLOWED BY 0.25 MMOL/KG DIET FOR 117 D WITH INTERMI, Route [Inhibitor]: ORAL, Species: HAMSTER, Strain/Sex: SYRIAN/MALE, Target Tissue: Type of Lesion: PANCREAS: CARCINOMA, Dose [Carcinogen]: 20 MG/KG INJECTION GIVEN TWICE 1 WK APART, Promoter: NONE USED) was 34%, 30%, 12%, not significant.

In the case of CC(O)CCCCCC(=O)c1ccccc1 (stereo not given), the “tumour outcome (control, treated, inhibition, significance)” value (Carcinogen: 4-(METHYLNITROSAMINO)-1-(3-PYRIDYL)-1-BUTANONE, 64091-91-4, Dose [Inhibitor]: 0, 25 UMOL IN 0.1 ML CORN OIL ONCE 2 HR PRIOR TO CARCINOGEN DOSE (STUDY DURATION: 16 WK), Route [Inhibitor]: GAVAGE, Species: MOUSE, Strain/Sex: STRAIN-A/FEMALE, Target Tissue: Type of Lesion: LUNG: ADENOMA, Dose [Carcinogen]: 10 UMOL IN 0.1 ML SALINE ONCE, Promoter: NONE USED) is given as 100%, 100%, 0%, not significant.

For O=C1O[C@@H]2[C@@H](O)CO[C@]2(O)[C@@]1(O)Cc1c[nH]c2ccccc12, the “tumour outcome (control, treated, inhibition, significance)” value (Carcinogen: 7,12-DIMETHYLBENZ[A]ANTHRACENE [57-97-6], Dose [Inhibitor]: 0, 16 MG IN 0.5 ML DMSO 1X/D FOR 3 D BEGINNING 2 D PRIOR TO CARCINOGEN DOSE (STUDY DURATION: 93 D), Route [Inhibitor]: GAVAGE, Species: RAT, Strain/Sex: SPRAGUE-DAWLEY/FEMALE, Target Tissue: Type of Lesion: MAMMARY GLAND: TUMOR, Dose [Carcinogen]: 15 MG IN 0.5 ML DMSO TOGETHER WITH THE LAST DOES OF INHIBITOR (STUDY DURATION: 93 D), Promoter: NONE) is listed as 63%, 60%, 5%, not significant, the “tumour outcome (control, treated, inhibition, significance)” value (Carcinogen: 7,12-DIMETHYLBENZ[A]ANTHRACENE [57-97-6], Dose [Inhibitor]: 0, 32.5 MG IN 0.5 ML DMSO 1X/D FOR 3 D BEGINNING 2 D PRIOR TO CARCINOGEN DOSE (STUDY DURATION: 93 D), Route [Inhibitor]: GAVAGE, Species: RAT, Strain/Sex: SPRAGUE-DAWLEY/FEMALE, Target Tissue: Type of Lesion: MAMMARY GLAND: TUMOR, Dose [Carcinogen]: 15 MG IN 0.5 ML DMSO TOGETHER WITH THE LAST DOES OF INHIBITOR (STUDY DURATION: 93 D), Promoter: NONE) is listed as 63%, 33%, 48%, p<0.05 and the “tumour outcome (control, treated, inhibition, significance)” value (Carcinogen: 7,12-DIMETHYLBENZ[A]ANTHRACENE [57-97-6], Dose [Inhibitor]: 0, 65 MG IN 0.5 ML DMSO 1X/D FOR 3 D BEGINNING 2 D PRIOR TO CARCINOGEN DOSE (STUDY DURATION: 93 D), Route [Inhibitor]: GAVAGE, Species: RAT, Strain/Sex: SPRAGUE-DAWLEY/FEMALE, Target Tissue: Type of Lesion: MAMMARY GLAND: TUMOR, Dose [Carcinogen]: 15 MG IN 0.5 ML DMSO TOGETHER WITH THE LAST DOES OF INHIBITOR (STUDY DURATION: 93 D), Promoter: NONE) is listed as 63%, 39%, 38%, p<0.05.

In the case of Clc1ccc(-c2cc(Cl)c(Cl)c(Cl)c2)cc1Cl, the “tumour outcome (control, treated, inhibition, significance)” value (Carcinogen: 7,12-DIMETHYLBENZ[A]ANTHRACENE, 57-97-6, Dose [Inhibitor]: 0, 2.5 NG/KG BW ADMINISTERED INTRAGASTRICALLY TO MOTHERS ON DAYS 13 TO 19 POST-CONCEPTION (STUDY DURATION: 178 D), Route [Inhibitor]: IN UTERO, ORAL, Species: RAT, Strain/Sex: SD/FEMALE, Target Tissue: Type of Lesion: MAMMARY GLAND: TUMOR, Dose [Carcinogen]: 20 MG/KG BW ADMINISTERED TO 50-DAY OLD OFFSPRING) is listed as 93%, 93%, 0%, not significant, the “tumour outcome (control, treated, inhibition, significance)” value (Carcinogen: 7,12-DIMETHYLBENZ[A]ANTHRACENE, 57-97-6, Dose [Inhibitor]: 0, 7.5 UG/KG BW ADMINISTERED INTRAGASTRICALLY TO MOTHERS ON DAYS 13 TO 19 POST-CONCEPTION (STUDY DURATION: 178 D), Route [Inhibitor]: IN UTERO, ORAL, Species: RAT, Strain/Sex: SD/FEMALE, Target Tissue: Type of Lesion: MAMMARY GLAND: TUMOR, Dose [Carcinogen]: 20 MG/KG BW ADMINISTERED TO 50-DAY OLD OFFSPRING) is listed as 93%, 78%, 17%, p<0.05 and the “tumour outcome (control, treated, inhibition, significance)” value (Carcinogen: 7,12-DIMETHYLBENZ[A]ANTHRACENE, 57-97-6, Dose [Inhibitor]: 0, 250 NG/KG BW ADMINISTERED INTRAGASTRICALLY TO MOTHERS ON DAYS 13 TO 19 POST-CONCEPTION (STUDY DURATION: 178 D), Route [Inhibitor]: IN UTERO, ORAL, Species: RAT, Strain/Sex: SD/FEMALE, Target Tissue: Type of Lesion: MAMMARY GLAND: TUMOR, Dose [Carcinogen]: 20 MG/KG BW ADMINISTERED TO 50-DAY OLD OFFSPRING) is listed as 93%, 96%, -3%, not significant.

In the case of Cc1cc(=O)cc(C)o1, the “tumour outcome (control, treated, inhibition, significance)” value (Carcinogen: BENZO[A]PYRENE, 50-32-8, Dose [Inhibitor]: 0.034 MMOL/G IN DIET FOR 5 WK (STUDY DURATION: 21 WK), Route [Inhibitor]: ORAL, Species: MOUSE, Strain/Sex: ICR/FEMALE, Target Tissue: Type of Lesion: FORESTOMACH: TUMOR, Dose [Carcinogen]: 1 MG IN 0.2 ML CORN OIL 2/WK FOR 4 WK STARTING ON D 8 OF EXPERIMENT, Promoter: NONE USED) is given as 94%, 100%, -6%, not significant.
